Patent publication US8957001B2, “Particles comprising a biopolymer which is degradable under the effect of an electromagnetic wave as emitted by a solar radiation” (BASF Beauty Care Solutions France SAS, priority 2002, dated 2015)

Assay: Progressive release of an encapsulated active from liposomes under UV irradiation
Format: physicochemical
From the text: All is done in a manner identical to what is presented in Example 15, but RNA of marine origin, which is commercially available, is used in amounts which are identical to those used in Example 15. All is done in a manner identical to what is presented in Example 15, but DNA of plant origin or RNA of plant origin, which are commercially available (Inocosm), are used in amounts which are identical to those used in Example 15. All is done in a manner identical to what is presented in Example 15, but oligonucleosides or oligonucleotides, which are prepared by chemical synthesis and which are available from companies which manufacture these nucleosides or these nucleotides to order, are used for preparing these particles, in proportions which are identical to those used in Example 15.

| release under UV irradiation (encapsulated in plant DNA or plant RNA liposomes (Example 17), after 3 hours of irradiation) [%] | release under UV irradiation (encapsulated in plant DNA or plant RNA liposomes (Example 17), after 6 hours of irradiation) [%] | release under UV irradiation (encapsulated in marine RNA liposomes (Example 16), after 3 hours of irradiation) [%] | release under UV irradiation (encapsulated in marine RNA liposomes (Example 16), after 6 hours of irradiation) [%] | Molecule |
| --- | --- | --- | --- | --- |
| 60 | 96 | – | – | CCCCC(CC)COC(=O)C=Cc1ccc(OC)cc1 (stereo not shown) [Parsol MCX] |
| – | – | 40 | 80 | tocopherol |
